Test results taken from patent publication US20250161414A1, “METHOD FOR IMPROVING AUDITORY PERCEPTION USING A VIPR1 INHIBITOR” (ST. JUDE CHILDREN'S RESEARCH HOSPITAL, INC., priority 2022, published 2025).
Where two headings read alike, the source gives them in different places. No end group written: not given here.

Experiments:
ACx excitatory neurons = format: cell-based, mouse
[1] = system: hM4Di-expressing cortical FS interneurons; test: Current-clamp recording from hM4Di-expressing (mCitrine+) cells in acute cortical slices; format: cell-based, mouse; settings: bath application
Description: Single-Cell Electrophysiology: Auditory Thalamocortical Brain Slices. Acute primary thalamocortical (TC) slices (400-μm thick) containing the left ACx and the left ventral part of the medial geniculate nuclei (MGv) of the thalamus were prepared as previously described (Chun et al. (2014) Science 344:1178-1182; Cruikshank et al. (2002) J. Neurophysiol. 87:361-384). Briefly, mouse brains were removed and placed in cold (4° C.) dissecting medium containing 125 mM choline-Cl, 2.5 mM KCl, 0.4 mM CaCl2, 6 mM MgCl2, 1.25 mM NaH2PO4, 26 mM NaHCO3, and 20 mM glucose (300-310 mosm), equilibrated with 95% O2/5% CO2. […] If recorded in current-clamp mode, pyramidal neurons were additionally verified as regularly spiking. […]
Single-Cell Electrophysiology: Whole-Cell Recording. Whole-cell recordings were made with patch pipettes (3-5 MOhm) using a Multiclamp 700B amplifier, digitized (10 kHz) with a Digidata 1440, and recorded using pCLAMP 10 software (all Molecular Devices, San Jose, CA). […] In voltage-clamp recordings, series resistance, input resistance, and holding current were monitored for stability. […] Input resistance and membrane resting voltage were monitored during recordings. […] Drugs were added to ACSF or locally applied via continuous pressure ejection from a large-diameter pipette placed in the slice near the recorded cell. […]

[2] = Frequency discrimination (auditory) acuity test, pre-pulse inhibition of acoustic startle response (FDT); format: in vivo, mouse; settings: Gad2Cre, i.p., compared to vehicle
Description: (§1) Mouse Behavioral Tests: Frequency Discrimination (Auditory) Acuity Test. Pitch-discrimination acuity was assessed using pre-pulse inhibition (PPI) of the acoustic startle response via a hardware-computer interface (Kinder Scientific, Chula Vista, CA), according to established methods (Aizenberg et al. (2015) PLOS Biol. 13:e1002308; Blundon et al. (2017) Science 356:1352-1356). In brief, a background pure tone (16.4 kHz) was played at a sound pressure level (SPL) of 70 dB throughout the session, unless otherwise noted. Each session was split into four blocks. Block 1 included a 5-minute acclimation period in which the background tone was played. Block 2 included nine startle trials in which a 120-dB SPL, 20-ms white noise (WN) burst was played. Block 3 included prepulse trials and 10 startle-only trials in a pseudo-random order. Each pre-pulse trial included a 70-dB SPL 80-ms pre-pulse (pure-tone frequency was 0%, 1%, 2%, 4%, 8%, 16%, or 32% lower than that of the background tone), followed by a 120-dB SPL, 20-ms WN startle pulse, and then returned to the background tone after the startle. Every trial in Block 3 was presented 10 times. […] PPI percentage was calculated from Block 3 data as follows: [1−(pre-pulse trial/average startle only trial)]*100. […] FDT values were then analyzed using a t-test, a one-way ANOVA, or a paired t-test, as appropriate. […]

[3] = Acoustic startle response (ASR); format: in vivo, mouse; settings: C21 i.p., either genotype (Gad2Cre; WT or Gad2Cre; CD+/-)
Description: as §1

[4] = system: FS interneurons in the ACx; test: Whole-cell current-clamp recording of FS interneuron excitability (rheobase, current ramp) in auditory thalamocortical slices; format: cell-based, mouse; settings: for PG 97-269 rheobase shift (difference between rheobase before and after application) / PG 97-269 rheobase shift: FS interneurons
ACx interneurons = test: Whole-cell voltage-clamp recording of inward voltage-gated current threshold (voltage ramp) in ACx interneurons; format: cell-based, mouse; settings: Gtf2ird1+/- and Gtf2ird1-/- cortical interneurons compared to WT interneurons

Compound: NC1=N[C@H](O)[C@H]2[C@H]3O[C@]4(O)O[C@@H]([C@@H](O)[C@@]2(N1)[C@@H]4O)[C@]3(O)CO [tetrodotoxin]
- difference in sEPSC frequencies between WT and CD+/- ACx excitatory neurons after application (ACx excitatory neurons): abolished

Compound: c1ccc2c(c1)N=C(N1CCNCC1)c1ccccc1N2 [C21]
- number of action potentials elicited by depolarizing current injections [1]: decreased
- FDT (frequency-discrimination threshold) ([2]; CD+/- mice expressing hM4Di in ACx interneurons): significantly increased
- FDT (frequency-discrimination threshold) ([2]; WT mice expressing hM4Di in ACx interneurons): not different
- ASR [3]: not affected

Compound: picrotoxin
- difference in sEPSC frequencies between WT and CD+/- ACx excitatory neurons after application (ACx excitatory neurons; L4 ACx excitatory neurons): abolished

Compound: [Ala^11,22,28]-VIP (HSDAVFTDNYARLRKQMAVKKALNSILA; ends and bridges not checked; UniProt P01282 125-152, looked up, variant T11A Y22A N28A) [VIPR1-specific agonist]
- effect of VIPR1-specific agonist on interneurons ([4]; WT or CD+/- interneurons, brain slices): no significant effect

Compound: [Acetyl-His^1, D-Phe^2, Lys^15, Arg^16, Leu^17] VIP (1-7)/GRF (8-27) hybrid with C-terminal amidation (HFDAVFTNSYRKVLKRLSARKLLQDIL; HELM PEPTIDE1{[ac].H.[dF].D.A.V.F.T.N.S.Y.R.K.V.L.K.R.L.S.A.R.K.L.L.Q.D.I.L.[am]}$$$$V2.0; SMILES CC[C@H](C)[C@H](NC(=O)[C@H](CC(=O)O)NC(=O)[C@H](CCC(N)=O)NC(=O)[C@H](CC(C)C)NC(=O)[C@H](CC(C)C)NC(=O)[C@H](CCCCN)NC(=O)[C@H](CCCNC(=N)N)NC(=O)[C@H](C)NC(=O)[C@H](CO)NC(=O)[C@H](CC(C)C)NC(=O)[C@H](CCCNC(=N)N)NC(=O)[C@H](CCCCN)NC(=O)[C@H](CC(C)C)NC(=O)[C@@H](NC(=O)[C@H](CCCCN)NC(=O)[C@H](CCCNC(=N)N)NC(=O)[C@H](Cc1ccc(O)cc1)NC(=O)[C@H](CO)NC(=O)[C@H](CC(N)=O)NC(=O)[C@@H](NC(=O)[C@H](Cc1ccccc1)NC(=O)[C@@H](NC(=O)[C@H](C)NC(=O)[C@H](CC(=O)O)NC(=O)[C@@H](Cc1ccccc1)NC(=O)[C@H](Cc1c[nH]cn1)NC(C)=O)C(C)C)[C@@H](C)O)C(C)C)C(=O)N[C@@H](CC(C)C)C(N)=O) [PG 97-269, VIPR1-specific antagonist]
- PG 97-269 threshold shift (ACx interneurons): significantly reduced
- effect on excitability of FS interneurons ([4]; ACx of Gtf2ird1+/- and Gtf2ird1-/- mice compared to WT mice): either a diminished or no effect
- effect on excitability of FS interneurons ([4]; CD+/- cortex, interneurons already hyperexcitable): no additional effect
- PG 97-269 rheobase shift (difference between rheobase before and after application) ([4]; CD+/- mice): not significantly different from 0
- PG 97-269 rheobase shift ([4]; Gtf2ird1+/- mice): did differ from 0
- PG 97-269 rheobase shift ([4]; Gtf2ird1-/- mice): did not significantly differ from 0
- PG 97-269 rheobase shift (difference between rheobase before and after application) ([4]; WT mice): significantly less than 0
